The target of the assay is human recombinant GABAA α5β3γ2 receptor (Homo sapiens (Human), UniProt P18507+P31644). Kind of assay: Radioligand ([3H]Ro151788) receptor binding assay. The settings on record: membranes of HEK cells expressing human recombinant GABAA α5β3γ2; 0.5 nM [3H]Ro151788; 60 minutes at 4° C.; read-out: hGABAA α5 Ki. How it is done:
The GABAA α5β3γ2 protein used for the receptor binding assay was derived from membranes produced from HEK cells (Millipore CYL3073) expressing the human recombinant GABAA α5β3γ2 receptor. Cells were stored and cultured in-house according to the instructions provided by the vendor (Millipore). Cell pellet was homogenized in 10 times modified Krebs Henseleit buffer (membrane preparation buffer): 20 mM Tris, 120 mM NaCl, 100 mM KCl, 25 mM CaCl2 and 25 mM MgCl2 pH=7.4 at 4° C. using Ultra Turrax (Janke&Kunkel) maximal speed for 15 seconds. The homogenate was centrifuged at 40,000 g for 30 minutes at 4° C. Supernatant was discarded and the resulting pellet was washed in membrane preparation buffer. Pellet was resuspended in membrane preparation buffer and aliquots of 1.4 mL ampules were stored at −70° C. until use.
Receptor binding assays were performed in 96-well format in deep-well plates. For each 96-well plate one ampule of membrane homogenate was thawed and diluted in binding buffer (50 mM Tris pH=7.4, 100 mM KCl) and 200 μL was dispensed into each well. Radioligand [^3H]Ro151788 (Perkin Elmer: NET757250UC) was prepared in binding buffer and added to each well in 50 μL volume to give final concentration of 0.5 nM. Test compounds in suitable concentration(s) were added in additional 50 μL. The final assay volume was 300 μL. Incubation was carried out for 60 minutes at 4° C. For non-specific binding 10 μM unlabeled diazepam was used. After incubation samples were filtered over UniFilter® GF/BT using Filtermate Harvester (Perkin Elmer) and washed with 5×1 mL binding buffer. The plate was dried at 40° C. for an hour and 40 μL Microscint (Perkin Elmer) scintillation cocktail was added to each well. The plate was read in Microbeta (Perkin Elmer).
The specific radioligand binding (SB) was defined as the difference between total binding (Tot) and the non-specific binding (NSB). Results are expressed as a percent inhibition of specific binding obtained in the presence of compound of interest.
For IC50 and Ki determination a minimum of six drug concentrations in triplicate were used. IC50 values (i.e. concentration of compound giving 50% inhibition of specific binding) were calculated from concentration-displacement curves by sigmoidal fitting using Origin 7.5 software. Ki values (i.e. inhibition constants) were calculated using the Cheng-Prusoff equation Ki=IC50/[1+(L/KD)], where [L] is the radioligand concentration and KD the affinity of the labelled ligand for receptor. KD was determined from the Saturation analyses.

The source of these data is US20240067637A1, “NAPHTHYRIDINE AND PYRIDO[3,4-c]PYRIDAZINE DERIVATIVES AS GABAA ALPHA 5 RECEPTOR MODULATORS” (Richter Gedeon Nyrt., priority 2020, published 2024).

human recombinant GABAA α5β3γ2 receptor, sequence (P31644 32-462): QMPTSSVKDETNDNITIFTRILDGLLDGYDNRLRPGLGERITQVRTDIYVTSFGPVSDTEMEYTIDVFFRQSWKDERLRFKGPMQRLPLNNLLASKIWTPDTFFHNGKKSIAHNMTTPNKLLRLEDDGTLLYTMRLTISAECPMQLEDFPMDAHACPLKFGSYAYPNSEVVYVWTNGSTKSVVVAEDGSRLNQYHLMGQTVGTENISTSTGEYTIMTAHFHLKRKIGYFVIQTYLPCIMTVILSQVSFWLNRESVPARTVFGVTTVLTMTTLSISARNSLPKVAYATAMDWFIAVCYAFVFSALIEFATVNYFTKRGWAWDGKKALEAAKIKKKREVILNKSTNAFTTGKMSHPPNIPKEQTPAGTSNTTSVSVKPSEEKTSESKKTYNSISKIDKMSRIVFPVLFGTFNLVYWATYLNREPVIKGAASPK
human recombinant GABAA α5β3γ2 receptor, sequence (P28472 26-473 partner): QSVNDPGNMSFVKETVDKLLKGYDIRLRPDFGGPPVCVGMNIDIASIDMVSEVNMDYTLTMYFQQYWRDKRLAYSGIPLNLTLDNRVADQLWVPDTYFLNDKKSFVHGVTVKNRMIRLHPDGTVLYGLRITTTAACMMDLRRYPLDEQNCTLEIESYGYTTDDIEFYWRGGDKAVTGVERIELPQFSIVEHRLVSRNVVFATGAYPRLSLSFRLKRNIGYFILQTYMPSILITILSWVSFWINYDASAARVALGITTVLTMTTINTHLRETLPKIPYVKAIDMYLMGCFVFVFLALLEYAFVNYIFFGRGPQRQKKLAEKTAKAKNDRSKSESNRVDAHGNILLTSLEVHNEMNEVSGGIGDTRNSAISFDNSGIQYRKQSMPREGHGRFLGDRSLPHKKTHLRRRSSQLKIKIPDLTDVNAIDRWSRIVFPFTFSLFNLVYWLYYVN
human recombinant GABAA α5β3γ2 receptor, sequence (P18507 40-475): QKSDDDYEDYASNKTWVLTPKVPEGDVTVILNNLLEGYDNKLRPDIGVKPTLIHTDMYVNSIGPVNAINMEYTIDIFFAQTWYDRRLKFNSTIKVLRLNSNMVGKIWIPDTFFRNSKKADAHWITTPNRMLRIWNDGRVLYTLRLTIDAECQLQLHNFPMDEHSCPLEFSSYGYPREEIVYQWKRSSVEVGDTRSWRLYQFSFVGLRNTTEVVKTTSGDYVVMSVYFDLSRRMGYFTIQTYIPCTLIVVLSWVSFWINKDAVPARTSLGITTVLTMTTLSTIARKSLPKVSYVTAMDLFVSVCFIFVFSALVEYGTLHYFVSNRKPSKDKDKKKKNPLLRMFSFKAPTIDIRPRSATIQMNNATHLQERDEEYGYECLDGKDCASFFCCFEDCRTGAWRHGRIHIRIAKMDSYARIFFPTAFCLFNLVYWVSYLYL

By Ki is commonly meant a measure of affinity in units of concentration, obtained from inhibition or displacement. Turning to `Cc1ccc(-c2noc(C)c2COc2cc3c(cn2)CN(C(=O)[C@H]2CCC(=O)N2C)CC3)cn1` [Example 21, (5R)-1-methyl-5-(6-{[5-methyl-3-(6-methylpyridin-3-yl)-1,2-oxazol-4-yl]methoxy}-1,2,3,4-tetrahydro-2,7-naphthyridine-2-carbonyl)pyrrolidin-2-one], the Ki was found to be 5.7 nM. With `Cc1ccc(-c2noc(C)c2COc2cc3c(cn2)CN(C(=O)[C@@H]2CCC(=O)N2C)CC3)cn1` [Example 22, (5S)-1-methyl-5-(6-{[5-methyl-3-(6-methylpyridin-3-yl)-1,2-oxazol-4-yl]methoxy}-1,2,3,4-tetrahydro-2,7-naphthyridine-2-carbonyl)pyrrolidin-2-one] the figure was 9.4 nM; with `CCN1CC(C(=O)N2CCc3cc(OCc4c(-c5ccc(C)nc5)noc4C)ncc3C2)CC1=O` (stereo not shown) [Example 23, 1-ethyl-4-(6-{[5-methyl-3-(6-methylpyridin-3-yl)-1,2-oxazol-4-yl]methoxy}-1,2,3,4-tetrahydro-2,7-naphthyridine-2-carbonyl)pyrrolidin-2-one], 6.9 nM. For `CC(=O)N1CCc2cc(OCc3c(-c4ccc(C)nc4)noc3C)nnc2C1` [Example 24, 1-(3-{[5-methyl-3-(6-methylpyridin-3-yl)-1,2-oxazol-4-yl]methoxy}-5H,6H,7H,8H-pyrido[3,4-c]pyridazin-7-yl)ethan-1-one], the inhibition constant Ki worked out at 2.3 nM.

Take `Cc1ccc(-c2noc(C)c2COc2cc3c(nn2)CN(C(=O)N2CCOCC2)CC3)cn1` [Example 26, 4-(3-{[5-methyl-3-(6-methylpyridin-3-yl)-1,2-oxazol-4-yl]methoxy}-5H,6H,7H,8H-pyrido[3,4-c]pyridazine-7-carbonyl)morpholine]: the Ki stood at 13 nM. Next, `Cc1ccc(-c2noc(C)c2COc2cc3c(nn2)CN(C(=O)C2CCOCC2)CC3)cn1` [Example 27, 2-methyl-5-[5-methyl-4-({[7-(oxane-4-carbonyl)-5H,6H,7H,8H-pyrido[3,4-c]pyridazin-3-yl]oxy}methyl)-1,2-oxazol-3-yl]pyridine]: 10 nM. In the case of `Cc1ccc(-c2noc(C)c2COc2cc3c(nn2)CN(C(=O)C2CC2)CC3)cn1` [Example 28, 5-{4-[({7-cyclopropanecarbonyl-5H,6H,7H,8H-pyrido[3,4-c]pyridazin-3-yl}oxy)methyl]-5-methyl-1,2-oxazol-3-yl}-2-methylpyridine], the Ki came out at 4.4 nM. With `CCC(=O)N1CCc2cc(OCc3c(-c4ccc(C)nc4)noc3C)nnc2C1` [Example 29, 1-(3-{[5-methyl-3-(6-methylpyridin-3-yl)-1,2-oxazol-4-yl]methoxy}-5H,6H,7H,8H-pyrido[3,4-c]pyridazin-7-yl)propan-1-one] the figure was 6 nM. Next, `Cc1ccc(-c2noc(C)c2COc2cc3c(nn2)CN(C(=O)CF)CC3)cn1` [Example 30, 2-fluoro-1-(3-{[5-methyl-3-(6-methylpyridin-3-yl)-1,2-oxazol-4-yl]methoxy}-5H,6H,7H,8H-pyrido[3,4-c]pyridazin-7-yl)ethan-1-one]: 1.9 nM.

On to `Cc1ccc(-c2noc(C)c2COc2cc3c(nn2)CN(C(=O)C(C)C)CC3)cn1` [Example 31, 2-methyl-1-(3-{[5-methyl-3-(6-methylpyridin-3-yl)-1,2-oxazol-4-yl]methoxy}-5H,6H,7H,8H-pyrido[3,4-c]pyridazin-7-yl)propan-1-one], for which the Ki was 4.3 nM.

On to `Cc1ccc(-c2noc(C)c2COc2cc3c(nn2)CN(C(=O)NC2CC2)CC3)cn1` [Example 33, N-cyclopropyl-3-{[5-methyl-3-(6-methylpyridin-3-yl)-1,2-oxazol-4-yl]methoxy}-5H,6H,7H,8H-pyrido[3,4-c]pyridazine-7-carboxamide], for which the inhibitory constant (Ki) was 2.2 nM.

Turning to `CC(=O)N1CCc2cc(OCc3c(-c4ccc(C(F)(F)F)nc4)noc3C)nnc2C1` [Example 34, 1-[3-({5-methyl-3-[6-(trifluoromethyl)pyridin-3-yl]-1,2-oxazol-4-yl}methoxy)-5H,6H,7H,8H-pyrido[3,4-c]pyridazin-7-yl]ethan-1-one], the Ki stood at 8.1 nM. On to `CC(=O)N1CCc2cc(OCc3c(C)nnn3-c3ccc(C)nc3)ncc2C1` [Example 37, 1-(6-{[4-methyl-1-(6-methylpyridin-3-yl)-1H-1,2,3-triazol-5-yl]methoxy}-1,2,3,4-tetrahydro-2,7-naphthyridin-2-yl)ethan-1-one], for which the Ki turned out to be 7.9 nM.

Consider `Cc1ccc(-n2nnc(C)c2COc2cc3c(cn2)CN(C(=O)CF)CC3)cn1` [Example 38, 2-fluoro-1-(6-{[4-methyl-1-(6-methylpyridin-3-yl)-1H-1,2,3-triazol-5-yl]methoxy}-1,2,3,4-tetrahydro-2,7-naphthyridin-2-yl)ethan-1-one], for which the Ki was 6.6 nM. Turning to `Cc1ccc(-n2nnc(C)c2COc2cc3c(cn2)CN(C(=O)C(C)C)CC3)cn1` [Example 39, 2-methyl-1-(6-{[4-methyl-1-(6-methylpyridin-3-yl)-1H-1,2,3-triazol-5-yl]methoxy}-1,2,3,4-tetrahydro-2,7-naphthyridin-2-yl)propan-1-one], the inhibition constant (Ki) was 30 nM. In the case of `Cc1ccc(-n2nnc(C)c2COc2cc3c(cn2)CN(C(=O)CC(C)C)CC3)cn1` [Example 41, 3-methyl-1-(6-{[4-methyl-1-(6-methylpyridin-3-yl)-1H-1,2,3-triazol-5-yl]methoxy}-1,2,3,4-tetrahydro-2,7-naphthyridin-2-yl)butan-1-one], the Ki is 48 nM. As to `CCC(=O)N1CCc2cc(OCc3c(C)nnn3-c3ccc(C)nc3)ncc2C1` [Example 43, 1-(6-{[4-methyl-1-(6-methylpyridin-3-yl)-1H-1,2,3-triazol-5-yl]methoxy}-1,2,3,4-tetrahydro-2,7-naphthyridin-2-yl)propan-1-one], the inhibition constant (Ki) is 20 nM. With `Cc1ccc(-n2nnc(C)c2COc2cc3c(cn2)CN(C(=O)C2CC2)CC3)cn1` [Example 44, 2-cyclopropanecarbonyl-6-{[4-methyl-1-(6-methylpyridin-3-yl)-1H-1,2,3-triazol-5-yl]methoxy}-1,2,3,4-tetrahydro-2,7-naphthyridine] the figure was 22 nM; with `CC(=O)N1CCc2cc(OCc3c(C)nnn3-c3ccc(C(F)(F)F)nc3)ncc2C1` [Example 47, 1-[6-({4-methyl-1-[6-(trifluoromethyl)pyridin-3-yl]-1H-1,2,3-triazol-5-yl}methoxy)-1,2,3,4-tetrahydro-2,7-naphthyridin-2-yl]ethan-1-one], 25 nM; with `CCC(=O)N1CCc2cc(OCc3c(C)nnn3-c3ccc(C(F)(F)F)nc3)ncc2C1` [Example 48, 1-[6-({4-methyl-1-[6-(trifluoromethyl)pyridin-3-yl]-1H-1,2,3-triazol-5-yl}methoxy)-1,2,3,4-tetrahydro-2,7-naphthyridin-2-yl]propan-1-one], 33 nM. Turning to `Cc1nnn(-c2ccc(C(F)(F)F)nc2)c1COc1cc2c(cn1)CN(C(=O)CF)CC2` [Example 49, 2-fluoro-1-[6-({4-methyl-1-[6-(trifluoromethyl)pyridin-3-yl]-1H-1,2,3-triazol-5-yl}methoxy)-1,2,3,4-tetrahydro-2,7-naphthyridin-2-yl]ethan-1-one], the Ki was 15 nM. With `Cc1nnn(-c2ccc(C(F)(F)F)nc2)c1COc1cc2c(cn1)CN(C(=O)C(C)C)CC2` [Example 50, 2-methyl-1-[6-({4-methyl-1-[6-(trifluoromethyl)pyridin-3-yl]-1H-1,2,3-triazol-5-yl}methoxy)-1,2,3,4-tetrahydro-2,7-naphthyridin-2-yl]propan-1-one] the figure was 44 nM.
